In patent US20200163950A1, “PIPERIDINE-DIONE DERIVATIVES FOR USE AS CONTRACEPTIVES” (SPERMATECH AS, priority 2017, published 2020):

Target: LDHC (Homo sapiens, UniProt P07864)
Assay: Coupled diaphorase assay (LDHC inhibition)
Type: biochemical
Details: 10 nM LDHC, 500 μM lactate, 150 μM NAD+, 3 μM resazurin, fluorescence readout of resorufin
Source text: The inhibitory properties of the compounds were investigated using a coupled enzyme assay that links the lactate dehydrogenase (LDH) reaction to the production of fluorescent resorufin by diaphorase.
Human lactate dehydrogenases (LDH) catalyze the reversible interconversion between pyruvate and lactate. LDH is capable of catalyzing both the forward (pyruvate to lactate) and the reverse (lactate to pyruvate) reaction, using either NADH or NAD+ as cofactor. The reaction proceeds in either direction dependent on various factors, such as substrate availability, the presence of necessary cofactors, temperature and pH.
The coupled assay relies on the […] of NAD+ to NADH throughout the conversion of lactate to pyruvate by LDHC. The produced NADH serves as cofactor in the diaphorase reaction, which reduces non-fluorescent resazurin to fluorescent resorufin. Therefore, the assay indirectly monitors the rate of pyruvate production. Although the consumption or formation of NADH can be directly monitored due to the intrinsic fluorescence of the molecule (excitation: 340 nm, emission: 460 nm) there are problems linked to the direct readout method. It has been shown that many compounds in chemical libraries interfere with the assay due to fluorescent properties similar to NADH. Shifting the assay to longer wavelengths by coupling the LDH reaction to the conversion of resazurin to fluorescent resorufin by diaphorase reduces this compound interference. The assay direction was thus chosen to provide a robust and reliable assay.
For the determination of IC50 values a coupled diaphorase assay was adopted from Bembenek et al. (A Fluorescence-Based Coupling Reaction for Monitoring the Activity of Recombinant Human NAD Synthetase. ASSAY and Drug Development Technologies, 2005. 3(5): 533-541). Compounds were tested in duplicates using 2-fold, 3-fold or 4-fold serial dilutions including 11 individual concentrations, starting from 5000 μM to 30 μM depending on their activity in initial tests. Positive (without compound in the presence of DMSO) and inhibition controls (oxamate, 28.7 mM final concentration in assay) or no-substrate controls representing 100% inhibition were added. Oxamate is a well characterized inhibitor of LDH that inhibits LDH enzyme activity in the mM range in vitro with high specificity (Papacostantinou et al., J. Biol. Chem. 236: 278-284, 1961). The controls allowed for the calculation of the percentage inhibition for each data point. The assay buffer consisted of 50 mM HEPES pH 7.4, 5 mM MgCl2 and 0.05% pluronic acid F-127. Enzyme solution with final concentrations of 10 nM LDHC, as well as 0.2 U/ml diaphorase was dispensed into 384-well plates (Greiner bio-one) using a CyBi®-SELMA robotic pipettor. Compound dilutions and the enzyme were incubated for at least 15 to 20 min at room temperature. Thereafter, the substrate solution was added (final concentrations: 500 μM lactate, 150 μM NAD^+, 3 μM resazurin). The reaction was quenched by the addition of a stop solution (final concentrations: 20 mM EDTA, 400 mM NaCl, 40 mM pyruvate). Fluorescence was read out after 5 min of incubation at an excitation wavelength of 560 nm and an emission wavelength of 590 nm on a BMG labtech FLUOstar OPTIMA or a Perkin Elmer Victor X plate reader. […]

Chain of LDHC (P07864 whole entry): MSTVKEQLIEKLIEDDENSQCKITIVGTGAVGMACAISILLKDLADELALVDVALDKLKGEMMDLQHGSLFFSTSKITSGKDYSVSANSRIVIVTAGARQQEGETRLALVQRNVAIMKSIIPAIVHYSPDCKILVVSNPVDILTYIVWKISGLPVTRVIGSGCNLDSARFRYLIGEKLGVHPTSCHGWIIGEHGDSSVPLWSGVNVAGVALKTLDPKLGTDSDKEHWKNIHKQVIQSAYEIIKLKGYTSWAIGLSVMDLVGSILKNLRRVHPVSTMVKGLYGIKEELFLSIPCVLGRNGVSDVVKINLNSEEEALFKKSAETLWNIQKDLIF

| SMILES | IC50 [µM] |
| --- | --- |
| O=C1CC(c2ccc(N3CCOCC3)cc2)(c2ccsc2)NC(=O)C1Sc1ccccc1Cl (racemic) [Example 7, 3-((2-chlorophenyl)thio)-6-(4-morpholinophenyl)-6-(thiophen-3-yl)piperidine-2,4-dione] | 0.5 to 10 |
| O=C1CC(c2ccc(N3CCOCC3)cc2)(c2ccsc2)NC(=O)C1Sc1ccccc1Cl (single isomer, unassigned) [7 Enantiomer 2] | 10 to 50 |
| O=C1CC(c2ccsc2)(c2cccc(OCC3CCCC3)n2)NC(=O)C1Sc1cccc(Cl)c1Cl (stereo not shown) [Example 4, 6-[6-(cyclopentylmethoxy)pyridin-2-yl]-3-[(2,3-dichlorophenyl)sulfanyl]-6-(thiophen-3-yl)piperidine-2,4-dione] | 50 to 100 |
| O=C1NC(c2ccc(N3CCOCC3)cc2)(c2ccsc2)CC(OC(=O)c2ccncc2)=C1Sc1cc(Cl)ccc1Cl (stereo not shown) [Example 9, 5-((2,5-dichlorophenyl)thio)-2-(4-morpholinophenyl)-6-oxo-2-(thiophen-3-yl)-1,2,3,6-tetrahydropyridin-4-yl isonicotinate] | 0.5 to 10 |
| O=C1CC(c2ccc(N3CCOCC3)cc2)(c2ccsc2)NC(=O)C1Sc1ccccc1Cl (single isomer, unassigned) [7 Enantiomer 1] | 0.5 to 10 |
| CC(C)CCOc1cccc(C2(c3ccsc3)CC(=O)C(Sc3ccccc3Cl)C(=O)N2)n1 (stereo not shown) [Example 12, 3-((2-chlorophenyl)thio)-6-(6-(isopentyloxy)pyridin-2-yl)-6-(thiophen-3-yl)piperidine-2,4-dione] | 0.5 to 10 |
| O=C1CC(c2ccc(N3CCOCC3)cc2)(c2ccsc2)NC(=O)C1Sc1cc(Cl)ccc1Cl (racemic) [Example 6, 3-((2,5-dichlorophenyl)thio)-6-(4-morpholinophenyl)-6-(thiophen-3-yl)piperidine-2,4-dione] | 0.5 to 10 |
| O=C1CC(c2ccsc2)(c2cccc(OCC3CCCC3)n2)NC(=O)C1Sc1cc(Cl)ccc1Cl (stereo not shown) [Example 3, 6-[6-(cyclopentylmethoxy)pyridin-2-yl]-3-[(2,5-dichlorophenyl)sulfanyl]-6-(thiophen-3-yl)piperidine-2,4-dione] | 0.5 to 10 |
| O=C1CC(c2ccsc2)(c2cccc(OC3COC3)n2)NC(=O)C1Sc1ccccc1Cl (stereo not shown) [Example 10, 3-((2-chlorophenyl)thio)-6-(6-(oxetan-3-yloxy)pyridin-2-yl)-6-(thiophen-3-yl)piperidine-2,4-dione] | 10 to 50 |
| O=C1CC(c2ccsc2)(c2cccc(OCC3CCCC3)n2)NC(=O)C1Sc1ccc(F)cc1Cl (stereo not shown) [Example 2, 3-[(2-chloro-4-fluorophenyl)sulfanyl]-6-[6-(cyclopentylmethoxy)pyridin-2-yl]-6-(thiophen-3-yl)piperidine-2,4-dione] | 0.5 to 10 |
| O=C1CC(c2ccsc2)(c2cccc(Cc3cccc(F)c3)n2)NC(=O)C1Sc1ccccc1Cl (stereo not shown) [Example 11, 3-((2-chlorophenyl)thio)-6-(6-(3-fluorobenzyl)pyridin-2-yl)-6-(thiophen-3-yl)piperidine-2,4-dione] | 0.5 to 10 |
| O=C1CC(c2ccsc2)(c2cccc(OCC3CCCC3)n2)NC(=O)C1Sc1ccc(Cl)cc1Cl (stereo not shown) [Example 1, 6-[6-(cyclopentylmethoxy)pyridin-2-yl]-3-[(2,4-dichlorophenyl)sulfanyl]-6-(thiophen-3-yl)piperidine-2,4-dione] | 50 to 100 |
| O=C1CC(c2ccc(N3CCOCC3)cc2)(c2ccsc2)NC(=O)C1Sc1cc(Cl)ccc1Cl (single isomer, unassigned) [6 Enantiomer 2] | 50 to 100 |
| O=C1CC(c2ccc(N3CCOCC3)cc2)(c2ccsc2)NC(=O)C1Sc1cc(Cl)ccc1Cl (single isomer, unassigned) [6 Enantiomer 1] | 10 to 50 |
| O=C1CC(c2ccc(N3CCOCC3)cc2)(c2ccsc2)NC(=O)C1Sc1ccc(F)cc1Cl (stereo not shown) [Example 5, 3-((2-chloro-4-fluorophenyl)thio)-6-(4-morpholinophenyl)-6-(thiophen-3-yl)piperidine-2,4-dione] | 0.5 to 10 |
| O=C1CC(c2ccsc2)(c2cccc(OCC3CCCC3)n2)NC(=O)C1Sc1ccccc1Cl (stereo not shown) [Example 8, 3-((2-chlorophenyl)thio)-6-(6-(cyclopentylmethoxy)pyridin-2-yl)-6-(thiophen-3-yl)piperidine-2,4-dione] | 0.5 to 10 |
